# Legend:
# Male SD rats = test: Rat defecation experiment; type: in vivo; settings: mean ± standard error
# Procedure: Rat Defecation Experiment
# Male SD rats (5-6 weeks old) were used after an acclimation period for about 1 week. A test drug (1 mg/kg or […]) was suspended in 0.5% methylcellulose solution and orally administered at a volume of 5 mL/kg, and the number of feces 2 hr later was counted. Only 0.5% methylcellulose was administered to a solvent administration group.
# MDR1 = target: T1, MDR1 (Homo sapiens, UniProt P08183); test: MDR1 membrane permeability test; type: in vitro ADME; settings: LLC-PK1, pH 7.4, 10 μmol/L test compound, Papp B to A / Papp A to B, read-out: Efflux ratio (ER)
# T1 construct: expressed in transfected cells
# Procedure: MDR1 Membrane Permeability Test
# When MDR1 is expressed in excess in LLC-PK1 cell, which is a polar cell, MDR1 is localized in apical membrane (A), thus promoting transcellular transport from the basement membrane side (B) toward direction A. When a ratio to the transcellular transport in the opposite direction is taken and a ratio to a control cell in which a mock vector has been introduced is further taken, an efflux ratio of MDR1 to simple diffusion (corrected efflux ratio) is calculated. Similarly, when a brain/plasma concentration ratio in Mdr1(−/−) mouse is divided by a brain/plasma concentration ratio in wild-type mouse, an efflux ratio of Mdr1 to simple diffusion in blood-brain barrier (BBB) (Kp, brain ratio, higher value means lower central nervous system permeability) is calculated. […]
# Transcellular transport was performed according to the report of Sugimoto et al. (Reference 3). […] After 1 hr, the sample was collected from the side opposite to the side where the drug solution was added, and the concentration of the test compound was measured by LC-MS/MS. […]
# Papp, A to B and Papp, B to A (apparent permeability) were calculated from the formula (1), and the efflux ratio (ER) was calculated from the formula (2). […]
# [1] = target: T2, human M1 receptor (hCHRM1) (Homo sapiens, UniProt P11229); test: Measurement of M1 receptor positive allosteric modulator (M1PAM) activity; type: cell-based; settings: CHO-K1 cells stably expressing hCHRM1, in the presence of acetylcholine at EC20 concentration, IP1 readout
# T2 construct: expressed in transfected cells
# T2 sequence (P11229 1-460): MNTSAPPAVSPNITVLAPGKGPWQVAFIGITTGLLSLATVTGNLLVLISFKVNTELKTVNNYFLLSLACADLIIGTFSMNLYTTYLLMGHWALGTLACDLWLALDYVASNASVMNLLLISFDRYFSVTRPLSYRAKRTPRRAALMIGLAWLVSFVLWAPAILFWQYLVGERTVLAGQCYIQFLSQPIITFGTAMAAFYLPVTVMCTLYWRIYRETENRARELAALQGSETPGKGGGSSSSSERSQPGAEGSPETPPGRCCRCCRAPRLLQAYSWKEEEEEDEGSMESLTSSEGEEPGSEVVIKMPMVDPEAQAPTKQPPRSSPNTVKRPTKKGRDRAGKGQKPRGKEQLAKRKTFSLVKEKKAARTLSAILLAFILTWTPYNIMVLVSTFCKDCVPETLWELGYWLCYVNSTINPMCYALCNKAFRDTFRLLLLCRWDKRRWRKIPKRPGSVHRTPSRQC
# Procedure: Measurement of M1 Receptor Positive Allosteric Modulator (M1PAM) Activity
# The activity of a test compound in the presence of acetylcholine at an EC20 concentration affording about 20% action of the maximum activity was measured as PAM activity. The method therefor is as follows. To a 384-well white plate (Greiner) was added 4 μL of the test compound diluted with IP1 Stimulation buffer (CisBio) containing 0.1% fatty acid-free BSA containing 80 nM acetylcholine. Freeze stock of CHO-K1 cells stably expressing human M1 receptor (hCHRM1) was prepared with IP1 Stimulation buffer (CisBio) containing 0.1% fatty acid-free BSA, 4 μL thereof was added (10,000 cells/well) and the mixture was cultured in a 5% CO2 incubator at 37° C. for 1 hr. 4 μL of a solution (CisBio) containing IP1-d2 and Anti-IP1-cryptate Tb conjugate was added, the mixture was incubated at room temperature for 1 hr, and the time-resolved fluorescence signal was measured on an Envision plate reader (PerkinElmer). The activity (%) of the test compound was calculated by defining the value when acetylcholine was added at the final concentration of 20 μM as 100% and the value when DMSO was added instead of the test compound under acetylcholine-free conditions as 0%, and the EC50 value was calculated as a value of 50% of the concentration dependence curve of the test compound.
# Rat PK test = type: in vivo; settings: plasma, male SD rats
# Procedure: As the rat, 8-week-old male SD rats (Japan SLC, Inc.) were used. They were fed on a solid commercially available diet (CE-2, CLEA Japan, Inc.) and allowed to freely ingest tap water as the drinking water. An intravenous administration solution for the rats was prepared by weighing a test compound, dissolving same in dimethylacetamide (DMA) (Wako Pure Chemical Industries, Ltd.), adding the same volume of 1,3-butanediol (Wako Pure Chemical Industries, Ltd.) and mixing by stirring to give a DMA:1,3-butanediol (1:1, v/v) solution. An oral administration solution was prepared by weighing a test compound, pulverizing same in an agate mortar, and gradually adding 0.5 w/v % aqueous methylcellulose solution to give a suspension. For intravenous administration, the solution was administered into femoral vein of the rats at 0.1 mg/0.5 mL/kg (salt converted to free form). For oral administration, the suspension was administered to the rats at 1 mg/5 mL/kg (salt converted to free form). The cassette dosing method was used for the both administration routes, and the test compound was administered in the following manner.
# Compound of Example 1 (Intravenous: 10 Compounds Cassette Administration, Oral: 5 Compounds Cassette Administration)
# In the case of intravenous administration, blood samples were collected from the tail vein at 5, 10, 15, 30 min, 1, 2, 4, 8 hr after administration, an anticoagulation treatment with heparin sodium (Shimizu Pharmaceutical Co., Ltd.) was performed, and plasma was collected after centrifugation and subjected to the measurement of drug concentration. In the case of oral administration, blood samples were collected from the tail vein at 15, 30 min, 1, 2, 4, 8 hr after administration, an anticoagulation treatment with heparin sodium was performed, and plasma was collected after centrifugation and subjected to the measurement of drug concentration.
# All drug concentrations were measured by LC-MS/MS analysis. […]
# Male beagle dogs = test: Experiment on gastrointestinal motility in dogs; type: in vivo, dog; settings: 0.03 mg/kg orally, 8 hr after administration, compared with the solvent administration group
# Procedure: Experiment on Gastrointestinal Motility in Dogs
# Male beagle dogs each equipped with four pressure transducers (one in the ileum and three in the large intestine) were used after an acclimation period for 15 days after surgery. The compound of Example 1 (0.03 mg/kg) was suspended in 0.5% methylcellulose solution and orally administered at a volume of 10 mL/kg. Only 0.5% methylcellulose was administered to a solvent administration group.
# HAPC (abbreviation for high amplitude propagated contractions which mean strong contractions propagated from the oral side to the anal side of the large intestine during defecation. Intestinal contraction pattern observed during normal defecation.) at 8 hr after administration was counted using a telemeter for gastrointestinal motility (GTS-850, STARMEDICAL).
# T1 sequence (P08183 whole entry): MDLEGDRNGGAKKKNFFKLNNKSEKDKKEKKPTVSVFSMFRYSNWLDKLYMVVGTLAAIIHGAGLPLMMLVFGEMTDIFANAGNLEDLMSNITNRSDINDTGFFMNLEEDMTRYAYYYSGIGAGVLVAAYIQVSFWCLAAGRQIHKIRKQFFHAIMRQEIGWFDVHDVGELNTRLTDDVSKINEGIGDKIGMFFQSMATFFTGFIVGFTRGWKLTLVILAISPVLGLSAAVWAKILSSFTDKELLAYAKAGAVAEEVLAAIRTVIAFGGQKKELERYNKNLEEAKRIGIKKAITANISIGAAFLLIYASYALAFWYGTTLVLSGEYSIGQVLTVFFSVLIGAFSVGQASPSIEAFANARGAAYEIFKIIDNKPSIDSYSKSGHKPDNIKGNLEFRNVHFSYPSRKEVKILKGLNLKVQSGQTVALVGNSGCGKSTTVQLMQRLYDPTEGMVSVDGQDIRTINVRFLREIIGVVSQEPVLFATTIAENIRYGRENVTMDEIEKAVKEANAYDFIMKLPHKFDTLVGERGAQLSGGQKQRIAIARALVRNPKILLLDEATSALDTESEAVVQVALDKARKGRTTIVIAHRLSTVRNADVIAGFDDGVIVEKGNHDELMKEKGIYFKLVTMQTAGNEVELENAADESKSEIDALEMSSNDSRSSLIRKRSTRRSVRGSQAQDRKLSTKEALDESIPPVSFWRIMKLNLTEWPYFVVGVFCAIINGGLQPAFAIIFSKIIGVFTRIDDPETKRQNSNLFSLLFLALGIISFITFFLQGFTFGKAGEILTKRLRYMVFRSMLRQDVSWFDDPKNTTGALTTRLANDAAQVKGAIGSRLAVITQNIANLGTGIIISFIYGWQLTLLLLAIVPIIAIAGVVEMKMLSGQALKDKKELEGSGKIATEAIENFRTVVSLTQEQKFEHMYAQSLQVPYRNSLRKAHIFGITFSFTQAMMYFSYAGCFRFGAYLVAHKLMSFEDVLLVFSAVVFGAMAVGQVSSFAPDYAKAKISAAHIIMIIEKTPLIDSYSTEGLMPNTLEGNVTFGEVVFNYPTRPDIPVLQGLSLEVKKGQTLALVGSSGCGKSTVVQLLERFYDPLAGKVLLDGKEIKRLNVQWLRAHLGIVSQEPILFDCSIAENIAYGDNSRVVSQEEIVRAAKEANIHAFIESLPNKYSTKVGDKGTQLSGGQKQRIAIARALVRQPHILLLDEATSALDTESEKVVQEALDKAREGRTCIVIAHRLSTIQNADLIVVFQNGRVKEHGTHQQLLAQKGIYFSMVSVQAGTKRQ
smiles,measurement,setting,value
"COCCNC(=O)c1ccc(Cc2cc3c(c4c2OCC4)OCN([C@H]2CCOC[C@@H]2O)C3=O)cc1F [Example 1, 1,5-anhydro-2,3-dideoxy-3-[6-({3-fluoro-4-[(2-methoxyethyl)carbamoyl]phenyl}methyl)-4-oxo-8,9-dihydro-2H-furo[2,3-h][1,3]benzoxazin-3(4H)-yl]-L-threo-pentitol]",number of feces 2 hr later,Male SD rats; 1 mg/kg orally,14.8 ± 1.2
same,number of feces 2 hr later,Male SD rats; 3 mg/kg orally,13.9 ± 2.1
same,"efflux ratio at 1 h, 10 μmol/L",MDR1,15
same,EC50,[1],0.31 nM
same,MRT,"Rat PK test; intravenous 0.1 mg/kg, 10 compounds cassette administration",48 min
same,clearance,"Rat PK test; intravenous 0.1 mg/kg, 10 compounds cassette administration, read-out: CL total (converted)",12.6 mL/min/kg
same,Tmax,"Rat PK test; oral 1 mg/kg, 5 compounds cassette administration",1 h
same,number of HAPCs in the intestinal tract,Male beagle dogs,an increase in the number of HAPCs in the intestinal tract was observed

# — US12012419B2, “Heterocyclic compound” (Takeda Pharmaceutical Company Limited, priority 2018, dated 2024)
